Results: patent publication US10894808B2, “Polypeptide ligands specific for plasma kallikrein” (BicycleRD Limited, priority 2013, dated 2021)
pKi: −log10 of the molar value. Where two headings read alike, the source gives them in different places. *1 amine or outer side, *2 acyl side, *3 side chain or, on linkers, in order; H or OH if unused. Where a SMILES comes first, the peptide text is derived from it. Bridges are numbered along the chain shown (N, C = ends). [ ]: non-standard residue; d: D form. TBMB = c1c(C[*:1])cc(C[*:3])cc1C[*:2]; hArg = N=C(N)NCCCC[C@H](N)C(=O)O; Aze = O=C(O)[C@@H]1CCN1

Assays:
[1] = target: T1, biotinylated human plasma kallikrein (Homo sapiens, UniProt P03952); assay: Homogeneous plate-based screening assay of TBMB-cyclised phage clones (signal:background); format: binding
T1 construct: The human kallikrein is non-recombinant and therefore the heavy chain is present; purchased Innovative Research, Novi, Mich., USA IHPKA; host or cells: from human plasma
T1 sequence (P03952 391-638 limits assumed): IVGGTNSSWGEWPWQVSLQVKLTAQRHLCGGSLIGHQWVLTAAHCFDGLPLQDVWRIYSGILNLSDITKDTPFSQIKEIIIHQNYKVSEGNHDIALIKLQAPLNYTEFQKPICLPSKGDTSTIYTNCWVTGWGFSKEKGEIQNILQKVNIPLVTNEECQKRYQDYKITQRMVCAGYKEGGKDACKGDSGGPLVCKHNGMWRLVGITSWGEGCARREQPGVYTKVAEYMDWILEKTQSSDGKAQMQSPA
T1 sequence (P03952 20-390 partner limits assumed): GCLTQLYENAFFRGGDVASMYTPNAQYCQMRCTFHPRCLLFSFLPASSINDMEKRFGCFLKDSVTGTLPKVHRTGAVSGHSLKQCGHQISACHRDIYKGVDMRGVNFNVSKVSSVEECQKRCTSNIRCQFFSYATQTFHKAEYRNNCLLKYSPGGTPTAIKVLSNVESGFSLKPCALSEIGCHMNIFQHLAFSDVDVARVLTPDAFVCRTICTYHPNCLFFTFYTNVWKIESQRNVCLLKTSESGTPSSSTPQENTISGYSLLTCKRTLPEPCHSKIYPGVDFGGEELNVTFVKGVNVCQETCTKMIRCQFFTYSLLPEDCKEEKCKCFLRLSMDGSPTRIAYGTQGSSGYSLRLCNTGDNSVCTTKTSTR
Protocol: Assay of binding of individual clones: Library transformant colonies were picked at random and grown as individual cultures in 2TY broth containing selective antibiotic. The picked colonies were DNA-sequenced using a QIAgen PyroMark Q96 DNA sequencer to reveal the amino-acid substitution present in each clone. Where isolated, a clone of each unique substitution was assayed for human plasma kallikrein binding as follows. The phage-containing supernatant was harvested from the culture and phage were cyclised with tris bromomethyl benzene (TBMB) based on the methods of Heinis et al (Nature Chemical Biology vol. 5 pp 502-507 (2009)). The purified phage from this process were assayed for binding to biotinylated human plasma kallikrein using a homogeneous plate-based binding assay; assay read-out measured on a BMG Labtech Pherastar FS plate reader. The quantitative binding data from triplicate assay samples was averaged (mean) and expressed as signal:background (where background was a sample assayed with no target material). The signal:background was expressed as a % of the parallel parent sample. Error bars denote standard deviation of the mean. Assays shown are representative of at least 2 independent experiments. The assay data was correlated with the peptide sequences. Substitutions marked in grey were not tested (a clone was not isolated from the random library sampling). A sample of a non-binding (arbitrary) bicycle was assayed in parallel to illustrate the assay baseline.
Assay of binding of individual clones: Library transformant colonies, or selection output colonies, were picked and grown as individual cultures in 2TY broth containing selective antibiotic. The picked colonies were DNA-sequenced using a QIAgen PyroMark Q96 DNA sequencer to reveal the amino-acid substitution present in each clone, and were assayed for human plasma kallikrein binding as follows. The phage-containing supernatant was harvested from the culture and phage were cyclised with tris-bromomethylbenzene (TBMB) based on the methods of Heinis et al (Nature Chemical Biology vol. 5 pp 502-507 (2009)). The purified phage from this process were assayed for binding to biotinylated human plasma kallikrein using a homogeneous plate-based binding assay; assay read-out measured on a BMG Labtech Pherastar FS plate reader. The quantitative binding data from duplicate assay samples was averaged (mean) and expressed as signal:background. Assay data shown is representative of at least 2 independent experiments. The assay data was correlated with the peptide sequences.

[2] = target: T2, rat plasma kallikrein (Rattus norvegicus, UniProt P14272); assay: Functional enzyme assay, inhibition of rat plasma kallikrein (Z-PheArg-AMC substrate); format: biochemical
T2 construct: polyhistidine tag followed by proTEV cleavage site (pro-peptide) (N, cleaved yes); made in house; host or cells: HEK-293 (suspension-adapted), pEXPR-IBA42 vector
T2 sequence (P14272 391-638 limits assumed): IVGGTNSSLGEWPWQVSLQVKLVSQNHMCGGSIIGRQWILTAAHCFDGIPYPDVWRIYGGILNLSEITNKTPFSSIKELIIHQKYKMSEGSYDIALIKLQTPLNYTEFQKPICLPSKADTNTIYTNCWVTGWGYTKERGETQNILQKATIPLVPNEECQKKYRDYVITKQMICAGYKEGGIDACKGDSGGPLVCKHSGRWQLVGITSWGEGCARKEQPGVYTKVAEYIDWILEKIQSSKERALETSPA
Protocol: (§1) Functional enzyme assays were conducted in 10 mM Tris HCl, 150 mM NaCl, 10 mM MgCl2, 1 mM CaCl2 and 1 mg/mL BSA (all Sigma UK) pH 7.4 at 25° C. in solid black 96 or 384 well plates. […] Release of AMC was measured using a Pherastar FS (BMG Labtech), excitation 360 nm, emission 460 nm. The rate of the linear phase of the reaction, typically 5 to 45 minutes, was calculated in MARS data analysis software (BMG labtech). The rate was then used to calculate the IC50 and Ki in Prism (GraphPad). A four parameter inhibition non-linear regression equation was used to calculate the IC50. […]
(§2) Peptides were dissolved as the TFA-salts in their powder form, and stock solutions were usually prepared in water. All solutions were centrifuged and filtered ([…] syringe filters) prior to absorption measurement at 280 nm. Extinction coefficients were calculated based on the Trp/Tyr content of the peptide, and that of TMB (the TMB core, when contained in a peptide, has an extinction coefficient of ˜300 M^−1 cm^−1).

[3] = target: T3, human plasma kallikrein (Homo sapiens, UniProt P03952); assay: Functional enzyme assay, inhibition of human plasma kallikrein (Z-PheArg-AMC substrate); format: biochemical
T3 construct: purchased Stratech, UK
T3 sequence (P03952 391-638 limits assumed): as the sequence (P03952 391-638 limits assumed) above
T3 sequence (P03952 20-390 partner limits assumed): as the sequence (P03952 20-390 partner limits assumed) above
Protocol: as §1, §2

[4] = target: rabbit kallikrein (Oryctolagus cuniculus, UniProt G1T127); assay: Functional enzyme assay, inhibition of rabbit kallikrein; format: biochemical; details: read-out: Rabbit (Ki)
Chain of rabbit kallikrein (G1T127 20-629): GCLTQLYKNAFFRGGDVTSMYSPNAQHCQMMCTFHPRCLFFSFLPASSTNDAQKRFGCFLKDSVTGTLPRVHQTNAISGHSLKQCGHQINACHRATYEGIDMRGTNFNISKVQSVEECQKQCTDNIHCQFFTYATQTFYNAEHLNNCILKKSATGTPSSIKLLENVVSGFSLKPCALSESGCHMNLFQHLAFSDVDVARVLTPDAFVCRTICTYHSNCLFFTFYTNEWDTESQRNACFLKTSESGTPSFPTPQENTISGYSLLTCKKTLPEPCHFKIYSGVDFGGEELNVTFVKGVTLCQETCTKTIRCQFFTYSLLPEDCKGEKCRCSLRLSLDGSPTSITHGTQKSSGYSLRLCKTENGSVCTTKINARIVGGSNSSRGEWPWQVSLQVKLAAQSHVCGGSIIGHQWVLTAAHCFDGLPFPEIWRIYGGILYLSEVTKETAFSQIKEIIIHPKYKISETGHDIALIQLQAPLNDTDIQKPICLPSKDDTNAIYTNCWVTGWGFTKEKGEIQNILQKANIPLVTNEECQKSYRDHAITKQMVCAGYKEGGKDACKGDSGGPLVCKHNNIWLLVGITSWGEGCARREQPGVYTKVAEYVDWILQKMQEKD
Protocol: as §1, §2

[5] = Aqueous solubility (qualitative); format: physicochemical; details: in words
[6] = Plasma stability profiling Method #2 (95% plasma, MALDI-TOF), human plasma; format: in vitro ADME; details: qualitative, sampled up to 46 hrs
Protocol: (§3) To obtain stability data more rapidly, peptides were also assessed in 95% plasma. Here, PBS was omitted, and a 1-5 mM peptide stock (in DMSO) was directly diluted into plasma (i.e. 2.5 μL stock into 47.5 μL plasma), giving a final concentration of 50 μM. 5 μL samples were taken at appropriate time points and frozen at −80° C. For analysis, the samples were defrosted, mixed with 25 μL of 3:3:1 acetonitrile:methanol:water, and centrifuged at 13 k for 5 min. 5 μL of the peptide-containing supernatant was aspirated and mixed with 30 mM ammonium bicarbonate in a 1:1 mixture of acetonitrile:H2O. 1 μL of this was then spotted on the MALDI plate and analysed as described above. As above, it should be noted that this is a qualitative assay serves to detect relative changes in plasma stability.

[7] = Plasma stability profiling Method #2 (95% plasma, MALDI-TOF), rat plasma; format: in vitro ADME; details: qualitative, sampled up to 46 hrs
Protocol: as §3

[8] = Table 3, 06-254 affinity-matured library
[9] = Table 4, 06-259 affinity-matured library
[10] = Table 1, synthetic peptides, read-out: Rat (Ki)
[11] = Table 1, synthetic peptides, read-out: Human (Ki)

| Compound | S:B (Signal:Background) [1, 9] | pKi ([4]; Table 1, synthetic peptides) | pKi ([4]; Table 5) | pKi [2, 10] | pKi [3, 11] | also measured |
| --- | --- | --- | --- | --- | --- | --- |
| CC(C)C[C@@H]1NC(=O)[C@H](C)NC(=O)[C@H](CCC(=O)O)NC(=O)[C@H](CC(=O)O)NC(=O)[C@H](C)NC(=O)[C@@H]2CCCN2C(=O)[C@@H]2CSCc3cc(cc(c3)CSC[C@@H](C(=O)NCC(N)=O)NC1=O)CSC[C@H](NC(=O)[C@H](C)N)C(=O)N[C@@H](CO)C(=O)N[C@@H](CC(=O)O)C(=O)N[C@@H](CCCNC(=N)N)C(=O)N[C@@H](Cc1ccccc1)C(=O)N[C@@H](CCCNC(=N)N)C(=O)N[C@@H](CC(N)=O)C(=O)N2 [PK15, reference compound] (H-ACSDRFRNCPADEALCG-NH2; linker 2-9-16 via TBMB (inferred); N-terminus and C-terminus assumed) | 14.05 |  |  |  |  | S:B (Signal:Background) [1, 8]: 14.05; pKi ([2]; text b212, read-out: Ki to rat kallikrein): ~6.30; pKi ([3]; text b212, read-out: Ki to human kallikrein): ~8.92 |
| CC[C@H](C)[C@@H]1NC(=O)[C@H]([C@@H](C)O)NC(=O)[C@H](C(C)C)NC(=O)[C@H](CC(C)C)NC(=O)[C@H](CC(=O)O)NC(=O)[C@@H]2CSCc3cc(cc(c3)CSC[C@@H](C(=O)N[C@@H](C)C(N)=O)NC(=O)[C@H](CO)NC1=O)CSC[C@H](NC(=O)[C@H](C)N)C(=O)N[C@@H](CCCCN)C(=O)N[C@@H](CC(N)=O)C(=O)N[C@@H](Cc1ccc(O)cc1)C(=O)N[C@@H](Cc1c[nH]c3ccccc13)C(=O)N[C@@H](CC(N)=O)C(=O)N1CCC[C@H]1C(=O)N2 [06-254] (H-ACKNYWNPCDLVTISCA-NH2; linker 2-9-16 via TBMB; N-terminus assumed) |  | 6.55 | 6.55 | 7.37 | 8.28 | S:B (Signal:Background) [1, 8]: 23.48 |
| CC(C)C[C@@H]1NC(=O)[C@H](CC(N)=O)NC(=O)[C@H](CCC(=O)O)NC(=O)[C@H](Cc2c[nH]cn2)NC(=O)[C@H](CC(C)C)NC(=O)[C@@H]2CSCc3cc(cc(c3)CSC[C@H](NC(=O)[C@H](C)N)C(=O)N3CCC[C@H]3C(=O)N[C@@H](Cc3ccc(O)cc3)C(=O)N3CCC[C@H]3C(=O)N[C@@H](Cc3ccccc3)C(=O)N[C@@H](CCCNC(=N)N)C(=O)N2)CSC[C@@H](C(=O)N[C@@H](C)C(N)=O)NC1=O [06-258] (H-ACPYPFRCLHENLCA-NH2; linker 2-8-14 via TBMB; N-terminus and C-terminus assumed) |  | 6.48 | 6.48 | 8.28 | 8.37 |  |
| CC(C)[C@@H]1NC(=O)[C@H](CCCNC(=N)N)NC(=O)[C@@H]2CSCc3cc(cc(c3)CSC[C@@H](C(=O)N[C@@H](C)C(N)=O)NC(=O)[C@H](Cc3ccc(O)cc3)NC(=O)[C@H](CCCNC(=N)N)NC(=O)[C@H]([C@@H](C)O)NC(=O)[C@H](CC(=O)O)NC1=O)CSC[C@H](NC(=O)[C@H](C)N)C(=O)N[C@@H](CCC(N)=O)C(=O)N[C@@H](CCCCN)C(=O)N[C@@H](Cc1ccccc1)C(=O)N[C@@H](CCC(=O)O)C(=O)N[C@@H](CO)C(=O)N[C@@H](CCCNC(=N)N)C(=O)N2 [06-256] (H-ACQKFESRCRVDTRYCA-NH2; linker 2-9-16 via TBMB; N-terminus assumed) |  | 5.84 | 5.84 | 5.56 | 8.18 |  |
| CC(C)[C@@H]1NC(=O)[C@H](Cc2c[nH]c3ccccc23)NC(=O)CNC(=O)[C@@H]2CSCc3cc(cc(c3)CSC[C@@H](C(=O)N[C@@H](C)C(N)=O)NC(=O)[C@H](Cc3ccccc3)NC(=O)CNC(=O)CNC1=O)CSC[C@H](NC(=O)[C@H](C)N)C(=O)N[C@@H](CC(N)=O)C(=O)N[C@@H]([C@@H](C)O)C(=O)N[C@@H](Cc1c[nH]c3ccccc13)C(=O)N[C@@H](CC(N)=O)C(=O)N1CCC[C@H]1C(=O)N[C@@H](Cc1c[nH]c3ccccc13)C(=O)N2 [06-259] (H-ACNTWNPWCGWVGGFCA-NH2; linker 2-9-16 via TBMB; N-terminus and C-terminus assumed) | 1.17 |  |  | 8.21 | 7.70 |  |
| CC[C@H](C)[C@@H]1NC(=O)[C@@H]2CCCN2C(=O)[C@@H]2CCCN2C(=O)[C@H](CC(=O)O)NC(=O)[C@H](C)NC(=O)[C@H](CO)NC(=O)[C@@H]2CSCc3cc(cc(c3)CSC[C@@H](C(=O)N[C@@H](C)C(N)=O)NC1=O)CSC[C@H](NC(=O)[C@H](C)N)C(=O)N[C@@H](CC(N)=O)C(=O)N[C@@H](Cc1c[nH]cn1)C(=O)N[C@@H](Cc1c[nH]c3ccccc13)C(=O)N[C@@H](CC(N)=O)C(=O)N1CCC[C@H]1C(=O)N[C@@H](Cc1c[nH]c3ccccc13)C(=O)N2 [06-259-03] (H-ACNHWNPWCSADPPICA-NH2; linker 2-9-16 via TBMB; N-terminus and C-terminus assumed) | 49.82 |  |  |  |  | pKi ([2]; Table 5, read-out: Rat (Ki)): 8.09; pKi ([3]; Table 5, read-out: Human (Ki)): 8.85 |
| CC[C@H](C)[C@@H]1NC(=O)[C@H](CC(=O)O)NC(=O)[C@@H]2CCCN2C(=O)[C@H](Cc2ccc(O)cc2)NC(=O)[C@H](Cc2ccc(O)cc2)NC(=O)[C@H](C(C)C)NC(=O)[C@@H]2CSCc3cc(cc(c3)CSC[C@H](N)C(=O)N[C@@H](CO)C(=O)N[C@@H](Cc3ccccc3)C(=O)N3CC[C@H]3C(=O)N[C@@H](Cc3ccc(O)cc3)C(=O)N[C@@H](CCCCNC(=N)N)C(=O)N2)CSC[C@@H](C(N)=O)NC1=O [06-550 Aze3 HArg5, -Ci-S-F-[Aze]-Y-[hR]-Cii-V-Y-Y-P-D-I-Ciii-] (H-CSF[Aze]Y[hArg]CVYYPDIC-NH2; linker 1-7-14 via TBMB; N-terminus and C-terminus assumed) |  |  |  |  |  | aqueous solubility [5]: significantly reduced aqueous solubility |
| CC(C)C[C@@H]1NC(=O)[C@H](CC(=O)O)NC(=O)[C@H](CCC(N)=O)NC(=O)[C@H](Cc2c[nH]cn2)NC(=O)[C@H](CC(C)C)NC(=O)[C@@H]2CSCc3cc(cc(c3)CSC[C@H](N)C(=O)N[C@@H](CO)C(=O)N[C@@H](Cc3c[nH]c4ccccc34)C(=O)N3CCC[C@H]3C(=O)N[C@@H](C)C(=O)N[C@@H](CCCNC(=N)N)C(=O)N2)CSC[C@@H](C(N)=O)NC1=O [06-34-18, reference compound] (H-CSWPARCLHQDLC-NH2; linker 1-7-13 via TBMB; N-terminus and C-terminus assumed) |  |  |  |  |  | comparative stability in human plasma [6]: largely disappeared; comparative stability in rat plasma [7]: largely disappeared |
